Results: patent US20050171037A1, “Therapeutic combinations” (Agouron Pharmaceuticals, Inc., priority 2004, published 2005)
Like-named read-outs stand apart in the source and are kept apart here.

Columns and labels:
[1] = Compound B pharmacokinetics after oral administration of a single dose alone (fasting) and with ritonavir (fed), human subjects; type: in vivo; details: for half-life / Cmax / AUC / Tmax: plasma; for half-life / Ae % (drug recovered unchanged in urine, percent of administered dose): arithmetic mean; for half-life: read-out: t1/2 (terminal phase plasma half-life) (converted); for AUC: read-out: AUC (area under the concentration-time curve from time 0 to infinity); for Tmax: median
Description: Nos. 11/008325, filed Dec. 8, 2004, and 60/591,351, filed Jul. 26, 2004, all of which are hereby incorporated by reference for this purpose. A total of 21 human subjects were administered a single 300 mg, 900 mg, 1800 mg, or 3600 mg dose of a spray-dried composition comprising 90 wt % amorphous Compound B and 10 wt % hydroxypropyl methyl cellulose acetate succinate (HPMCAS) under fasting conditions. […] Each plasma sample was analyzed for the presence of Compound B and the following pharmacokinetic parameters for Compound B were determined for each subject: area under the concentration-time curve from time 0 extrapolated to infinity (AUC), maximum observed plasma concentration (Cmax), time to first occurrence of Cmax (Tmax), terminal phase plasma half-life (t %), CL/F=apparent oral clearance, and cumulative amount of drug recovered unchanged in the urine expressed as a percentage of administered dose (Ae %).

[2] = as above; type: in vivo; details: geometric mean
[3] = po, 300 mg, single oral dose 300 mg (active dose 270 mg), alone, fasting
[4] = po, 300 mg, single oral dose 300 mg (active dose 270 mg), alone, fasting, geometric mean
[5] = po, 900 mg, single oral dose 900 mg (active dose 810 mg), alone, fasting
[6] = po, 900 mg, single oral dose 900 mg (active dose 810 mg), alone, fasting, geometric mean
[7] = po, 1800 mg, single oral dose 1800 mg (active dose 1620 mg), alone, fasting
[8] = po, 1800 mg, single oral dose 1800 mg (active dose 1620 mg), alone, fasting, geometric mean
[9] = po, 3600 mg, single oral dose 3600 mg (active dose 3240 mg), alone, fasting
[10] = po, 3600 mg, single oral dose 3600 mg (active dose 3240 mg), alone, fasting, geometric mean
[11] = po, single oral dose 300 mg (active 270 mg) + ritonavir (100 mg every 12 hours for 3 doses), fed
[12] = po, single oral dose 450 mg (active 405 mg) + ritonavir (100 mg every 12 hours for 3 doses), fed

half-life [1, 3]: 166 min
Cmax [1, 4]: 1530 ng/mL
AUC [1, 4]: 6110 ng·h/mL
Tmax [1, 3]: 0.5 h
half-life [1, 5]: 195 min
Cmax [1, 6]: 4610 ng/mL
AUC [1, 6]: 28200 ng·h/mL
Tmax [1, 5]: 2 h
half-life [1, 7]: 216 min
Cmax [1, 8]: 8670 ng/mL
AUC [1, 8]: 74500 ng·h/mL
Tmax [1, 7]: 3.02 h
half-life [1, 9]: 249 min
Cmax [1, 10]: 14500 ng/mL
AUC [1, 10]: 164000 ng·h/mL
Tmax [1, 9]: 4 h
half-life [1, 11]: 512 min
Tmax [1, 11]: 4 h
half-life [1, 12]: 618 min
Cmax ([1]; po, single oral dose 450 mg (active 405 mg) + ritonavir (100 mg every 12 hours for 3 doses), fed, geometric mean): 3830 ng/mL
Tmax [1, 12]: 4.02 h
AUC ([1]; single oral dose 300 mg (active 270 mg) + ritonavir (100 mg every 12 hours for 3 doses), fed, geometric mean): 34800 ng·h/mL
CL/F (apparent oral clearance) ([1]; single oral dose 300 mg (active dose 270 mg), alone, fasting, geometric mean): 44.2 L/h
AUC (area under the concentration-time curve from time 0 to infinity) ([1]; single oral dose 450 mg (active 405 mg) + ritonavir (100 mg every 12 hours for 3 doses), fed, geometric mean): 51.6 µg·h/mL
CL/F (apparent oral clearance) ([1]; single oral dose 900 mg (active dose 810 mg), alone, fasting, geometric mean): 28.7 L/h
CL/F (apparent oral clearance) ([1]; single oral dose 1800 mg (active dose 1620 mg), alone, fasting, geometric mean): 21.7 L/h
CL/F (apparent oral clearance) ([1]; single oral dose 3600 mg (active dose 3240 mg), alone, fasting, geometric mean): 19.7 L/h
Cmax ([2]; plasma, po, single oral dose 300 mg (active 270 mg) + ritonavir (100 mg every 12 hours for 3 doses)): 3100 ng/mL
CL/F (apparent oral clearance) ([2]; single oral dose 300 mg (active 270 mg) + ritonavir (100 mg every 12 hours for 3 doses)): 7.75 L/h
CL/F (apparent oral clearance) ([2]; single oral dose 450 mg (active 405 mg) + ritonavir (100 mg every 12 hours for 3 doses)): 7.84 L/h
SMILES: Cc1c(O)cccc1C(=O)N[C@@H](Cc1ccccc1)[C@H](O)C(=O)N1CC(F)(F)C(C)(C)[C@H]1C(=O)NCC(F)(F)F [Compound B, 4,4-difluoro-1-{(2S,3S)-2-hydroxy-3-[(3-hydroxy-2-methylbenzoyl)amino]-4-phenylbutanoyl}-3,3-dimethyl-N-(2,2,2-trifluoroethyl)-L-prolinamide]
Ae % (drug recovered unchanged in urine, percent of administered dose) ([1]; single oral dose 300 mg (active 270 mg) + ritonavir (100 mg every 12 hours for 3 doses), fed): 17.7%
Ae % (drug recovered unchanged in urine, percent of administered dose) ([1]; single oral dose 300 mg (active dose 270 mg), alone, fasting): 3.67%
Ae % (drug recovered unchanged in urine, percent of administered dose) ([1]; single oral dose 450 mg (active 405 mg) + ritonavir (100 mg every 12 hours for 3 doses), fed): 17.6%
Ae % (drug recovered unchanged in urine, percent of administered dose) ([1]; single oral dose 900 mg (active dose 810 mg), alone, fasting): 4.89%
Ae % (drug recovered unchanged in urine, percent of administered dose) ([1]; single oral dose 1800 mg (active dose 1620 mg), alone, fasting): 10.4%
Ae % (drug recovered unchanged in urine, percent of administered dose) ([1]; single oral dose 3600 mg (active dose 3240 mg), alone, fasting): 11.8%
